Measured values: ChEMBL document CHEMBL1152225, “Optimization of a series of potent and selective ketone histone deacetylase inhibitors” (Bioorg Med Chem Lett, 2008)
The source made the active and inactive calls. No cut-off for these calls is given here.

Columns and labels:
[1] = Metabolic stability in rat liver microsomes assessed as intrinsic clearance; type: ADME, Microsome
HeLa = assay: Antiproliferative activity against human HeLa cells after 72 hrs by celltiter-blue viability assay; type: functional, cell-based
Histone deacetylase 1 = Histone deacetylase 1 (Homo sapiens, UniProt Q13547)
Description: Inhibition of human recombinant C-terminally flag tagged HDAC1

[2] = molecular target: T1, Protein deacetylase HDAC6 (Homo sapiens, UniProt Q9UBN7)
T1 sequence (Q9UBN7 whole entry): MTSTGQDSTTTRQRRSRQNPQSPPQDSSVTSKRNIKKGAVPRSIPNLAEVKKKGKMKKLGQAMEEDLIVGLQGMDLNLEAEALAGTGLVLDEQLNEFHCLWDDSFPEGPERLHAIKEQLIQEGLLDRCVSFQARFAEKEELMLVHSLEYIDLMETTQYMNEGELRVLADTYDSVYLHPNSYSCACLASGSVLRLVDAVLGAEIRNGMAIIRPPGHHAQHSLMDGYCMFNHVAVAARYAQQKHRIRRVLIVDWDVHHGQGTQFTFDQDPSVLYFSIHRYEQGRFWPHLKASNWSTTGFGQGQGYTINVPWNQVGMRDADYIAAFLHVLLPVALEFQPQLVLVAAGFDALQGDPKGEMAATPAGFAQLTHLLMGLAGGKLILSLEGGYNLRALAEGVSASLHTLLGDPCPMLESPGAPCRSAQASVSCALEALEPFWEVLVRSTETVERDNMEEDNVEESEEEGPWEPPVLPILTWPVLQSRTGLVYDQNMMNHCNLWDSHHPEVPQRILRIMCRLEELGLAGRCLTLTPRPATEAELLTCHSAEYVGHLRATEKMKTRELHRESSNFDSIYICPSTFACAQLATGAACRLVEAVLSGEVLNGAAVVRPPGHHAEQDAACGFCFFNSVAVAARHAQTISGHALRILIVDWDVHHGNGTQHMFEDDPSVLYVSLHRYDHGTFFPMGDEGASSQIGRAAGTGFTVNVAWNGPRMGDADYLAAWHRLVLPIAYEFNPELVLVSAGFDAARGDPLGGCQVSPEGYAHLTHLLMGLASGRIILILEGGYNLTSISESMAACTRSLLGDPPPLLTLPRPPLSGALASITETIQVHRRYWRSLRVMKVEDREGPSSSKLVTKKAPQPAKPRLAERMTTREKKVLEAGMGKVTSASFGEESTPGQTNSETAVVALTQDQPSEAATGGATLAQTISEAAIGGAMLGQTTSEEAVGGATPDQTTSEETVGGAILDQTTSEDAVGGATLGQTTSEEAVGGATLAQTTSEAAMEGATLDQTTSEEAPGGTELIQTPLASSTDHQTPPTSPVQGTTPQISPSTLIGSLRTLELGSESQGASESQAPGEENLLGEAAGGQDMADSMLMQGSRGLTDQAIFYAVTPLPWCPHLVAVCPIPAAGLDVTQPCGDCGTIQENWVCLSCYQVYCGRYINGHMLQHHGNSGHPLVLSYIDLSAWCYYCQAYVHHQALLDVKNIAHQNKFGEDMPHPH

Histone deacetylase 3 = Histone deacetylase 3 (Homo sapiens, UniProt O15379)
Histone deacetylase 4 = Histone deacetylase 4 (Homo sapiens, UniProt P56524); assay: Inhibition of HDAC4
HCT-116 = assay: In vivo antitumor activity against human HCT116 cells; type: functional, organism-based
Histone deacetylase 7 = molecular target: T2, Histone deacetylase 7 (Homo sapiens, UniProt Q8WUI4); assay: Inhibition of HDAC7
T2 sequence (Q8WUI4 whole entry): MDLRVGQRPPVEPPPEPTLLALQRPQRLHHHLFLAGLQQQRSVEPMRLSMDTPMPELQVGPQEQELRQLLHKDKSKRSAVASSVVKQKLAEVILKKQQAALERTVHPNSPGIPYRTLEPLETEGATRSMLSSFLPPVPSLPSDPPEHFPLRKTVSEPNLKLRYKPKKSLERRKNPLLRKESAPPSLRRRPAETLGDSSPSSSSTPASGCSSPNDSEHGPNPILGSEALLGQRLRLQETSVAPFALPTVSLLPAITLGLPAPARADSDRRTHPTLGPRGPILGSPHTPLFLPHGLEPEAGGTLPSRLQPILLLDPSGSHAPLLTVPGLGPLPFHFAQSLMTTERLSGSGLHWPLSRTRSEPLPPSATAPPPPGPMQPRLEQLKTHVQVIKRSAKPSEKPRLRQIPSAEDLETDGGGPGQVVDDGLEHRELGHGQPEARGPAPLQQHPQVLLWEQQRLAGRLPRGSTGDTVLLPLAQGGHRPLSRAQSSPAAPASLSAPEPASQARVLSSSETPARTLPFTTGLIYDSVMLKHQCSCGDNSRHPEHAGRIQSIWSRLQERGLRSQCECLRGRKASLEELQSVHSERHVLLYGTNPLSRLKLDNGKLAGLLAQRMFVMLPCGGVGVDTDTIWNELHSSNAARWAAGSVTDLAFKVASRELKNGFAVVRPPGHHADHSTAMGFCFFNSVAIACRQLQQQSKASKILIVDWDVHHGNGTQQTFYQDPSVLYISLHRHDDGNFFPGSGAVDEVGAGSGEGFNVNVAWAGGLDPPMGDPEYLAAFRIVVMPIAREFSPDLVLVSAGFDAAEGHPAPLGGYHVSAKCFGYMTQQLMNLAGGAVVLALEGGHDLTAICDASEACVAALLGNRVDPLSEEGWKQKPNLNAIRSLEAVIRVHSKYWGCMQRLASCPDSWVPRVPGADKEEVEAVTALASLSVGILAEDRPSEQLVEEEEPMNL

Histone deacetylase 5 = Histone deacetylase 5 (Homo sapiens, UniProt Q9UQL6); assay: Inhibition of HDAC5
Histone deacetylase 8 = molecular target: T3, Histone deacetylase 8 (Homo sapiens, UniProt Q9BY41); assay: Inhibition of HDAC8
T3 sequence (Q9BY41 whole entry): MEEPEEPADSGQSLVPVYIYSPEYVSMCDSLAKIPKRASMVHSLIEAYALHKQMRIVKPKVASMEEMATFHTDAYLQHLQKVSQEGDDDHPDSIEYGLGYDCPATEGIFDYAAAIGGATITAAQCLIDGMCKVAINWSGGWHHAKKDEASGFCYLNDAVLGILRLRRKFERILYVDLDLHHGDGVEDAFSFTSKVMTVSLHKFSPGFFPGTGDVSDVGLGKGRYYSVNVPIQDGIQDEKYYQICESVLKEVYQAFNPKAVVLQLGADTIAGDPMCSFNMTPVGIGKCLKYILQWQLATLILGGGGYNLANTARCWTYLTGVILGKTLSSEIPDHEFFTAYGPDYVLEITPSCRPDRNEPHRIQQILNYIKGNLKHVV

Chain of Histone deacetylase 1 (Q13547 whole entry): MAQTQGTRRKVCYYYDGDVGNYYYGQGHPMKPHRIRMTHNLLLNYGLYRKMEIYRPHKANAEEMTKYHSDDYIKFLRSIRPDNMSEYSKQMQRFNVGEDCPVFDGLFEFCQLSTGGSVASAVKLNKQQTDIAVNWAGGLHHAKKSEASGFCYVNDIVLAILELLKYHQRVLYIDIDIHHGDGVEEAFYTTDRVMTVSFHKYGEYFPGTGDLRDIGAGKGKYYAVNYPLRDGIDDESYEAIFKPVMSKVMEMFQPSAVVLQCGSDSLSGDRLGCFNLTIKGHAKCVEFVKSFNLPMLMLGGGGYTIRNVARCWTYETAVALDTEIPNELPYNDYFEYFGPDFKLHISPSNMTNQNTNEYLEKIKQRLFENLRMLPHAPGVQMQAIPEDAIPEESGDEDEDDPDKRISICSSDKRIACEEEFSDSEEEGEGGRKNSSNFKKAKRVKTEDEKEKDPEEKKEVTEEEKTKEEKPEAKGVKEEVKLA
Chain of Histone deacetylase 3 (O15379 whole entry): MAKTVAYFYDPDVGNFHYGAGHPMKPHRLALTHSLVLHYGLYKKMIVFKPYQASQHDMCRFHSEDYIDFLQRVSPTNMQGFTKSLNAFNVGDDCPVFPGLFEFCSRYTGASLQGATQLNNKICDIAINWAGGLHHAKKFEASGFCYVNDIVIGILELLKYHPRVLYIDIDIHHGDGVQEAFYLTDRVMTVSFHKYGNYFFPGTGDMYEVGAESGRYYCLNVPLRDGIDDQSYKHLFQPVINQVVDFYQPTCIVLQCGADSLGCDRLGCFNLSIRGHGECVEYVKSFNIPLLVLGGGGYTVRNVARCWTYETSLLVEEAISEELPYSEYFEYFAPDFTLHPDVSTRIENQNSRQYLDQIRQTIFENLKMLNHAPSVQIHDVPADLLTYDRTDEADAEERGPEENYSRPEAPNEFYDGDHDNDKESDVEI
Chain of Histone deacetylase 4 (P56524 whole entry): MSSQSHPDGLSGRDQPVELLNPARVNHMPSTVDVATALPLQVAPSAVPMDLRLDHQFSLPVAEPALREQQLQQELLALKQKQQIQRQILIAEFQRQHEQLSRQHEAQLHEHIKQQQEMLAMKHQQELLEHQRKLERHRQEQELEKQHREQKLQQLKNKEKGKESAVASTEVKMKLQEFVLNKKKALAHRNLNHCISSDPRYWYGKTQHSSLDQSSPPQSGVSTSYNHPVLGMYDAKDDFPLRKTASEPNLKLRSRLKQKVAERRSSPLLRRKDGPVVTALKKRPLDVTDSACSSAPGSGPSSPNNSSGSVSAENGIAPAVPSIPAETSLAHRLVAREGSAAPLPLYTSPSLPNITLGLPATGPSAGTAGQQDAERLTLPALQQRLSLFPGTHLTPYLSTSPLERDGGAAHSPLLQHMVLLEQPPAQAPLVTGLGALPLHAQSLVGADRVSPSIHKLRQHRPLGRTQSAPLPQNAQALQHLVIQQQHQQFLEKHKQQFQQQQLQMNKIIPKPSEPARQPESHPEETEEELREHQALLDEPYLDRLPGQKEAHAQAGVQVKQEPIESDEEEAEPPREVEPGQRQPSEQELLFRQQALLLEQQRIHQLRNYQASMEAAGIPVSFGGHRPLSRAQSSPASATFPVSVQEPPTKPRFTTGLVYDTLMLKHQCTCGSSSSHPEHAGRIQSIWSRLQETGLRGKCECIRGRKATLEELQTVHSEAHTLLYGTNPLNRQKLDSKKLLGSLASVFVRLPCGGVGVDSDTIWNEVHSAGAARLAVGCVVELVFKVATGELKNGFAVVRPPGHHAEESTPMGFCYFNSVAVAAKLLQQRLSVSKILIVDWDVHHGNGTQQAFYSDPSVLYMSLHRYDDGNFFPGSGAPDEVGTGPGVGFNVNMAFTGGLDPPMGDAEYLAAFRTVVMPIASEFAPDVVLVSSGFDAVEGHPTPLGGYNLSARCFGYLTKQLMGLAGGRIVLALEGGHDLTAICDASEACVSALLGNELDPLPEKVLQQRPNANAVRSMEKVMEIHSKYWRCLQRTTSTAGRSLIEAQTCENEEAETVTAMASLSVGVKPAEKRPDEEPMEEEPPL
Chain of Histone deacetylase 5 (Q9UQL6 whole entry): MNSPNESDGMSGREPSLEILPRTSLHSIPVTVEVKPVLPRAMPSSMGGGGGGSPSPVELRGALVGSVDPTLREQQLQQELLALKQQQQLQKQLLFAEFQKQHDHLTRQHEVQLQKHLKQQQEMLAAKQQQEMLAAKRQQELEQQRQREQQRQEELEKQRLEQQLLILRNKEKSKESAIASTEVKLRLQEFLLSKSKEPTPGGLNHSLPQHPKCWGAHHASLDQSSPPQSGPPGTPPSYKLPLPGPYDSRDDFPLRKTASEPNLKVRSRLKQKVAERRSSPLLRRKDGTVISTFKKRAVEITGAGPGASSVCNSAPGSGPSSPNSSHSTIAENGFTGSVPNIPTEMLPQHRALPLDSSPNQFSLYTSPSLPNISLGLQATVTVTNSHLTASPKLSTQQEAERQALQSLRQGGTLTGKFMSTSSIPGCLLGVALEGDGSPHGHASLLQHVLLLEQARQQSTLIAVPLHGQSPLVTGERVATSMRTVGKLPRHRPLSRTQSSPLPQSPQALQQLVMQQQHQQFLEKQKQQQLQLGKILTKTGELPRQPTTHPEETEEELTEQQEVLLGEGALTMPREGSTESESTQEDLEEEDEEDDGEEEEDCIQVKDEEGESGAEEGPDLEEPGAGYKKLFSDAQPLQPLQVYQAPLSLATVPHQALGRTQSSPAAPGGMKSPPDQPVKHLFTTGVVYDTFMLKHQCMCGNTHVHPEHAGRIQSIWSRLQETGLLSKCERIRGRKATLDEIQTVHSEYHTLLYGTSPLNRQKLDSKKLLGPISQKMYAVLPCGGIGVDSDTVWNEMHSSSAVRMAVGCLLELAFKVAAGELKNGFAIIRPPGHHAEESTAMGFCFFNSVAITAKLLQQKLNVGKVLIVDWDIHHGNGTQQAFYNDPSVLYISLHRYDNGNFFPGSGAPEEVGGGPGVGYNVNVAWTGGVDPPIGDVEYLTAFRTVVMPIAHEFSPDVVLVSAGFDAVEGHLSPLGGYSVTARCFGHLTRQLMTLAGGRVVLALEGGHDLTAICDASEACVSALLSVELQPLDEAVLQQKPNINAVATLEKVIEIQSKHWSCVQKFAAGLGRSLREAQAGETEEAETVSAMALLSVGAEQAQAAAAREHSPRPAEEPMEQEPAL

Compound | microsomal CLint [1] [µL/min/mg] | IC50 (HeLa) [nM] | IC50 (Histone deacetylase 1) [nM] | also measured
CC(=O)CCCCC[C@H](NC(=O)C1CCN(C)CC1)c1ncc(-c2ccc(Br)cc2)[nH]1 | > 300 | 550 | 100 | 
CCCCC(=O)CCCCC[C@H](NC(=O)C1CCN(C)CC1)c1ncc(-c2ccc3ccccc3c2)[nH]1 |  | 690 | 74 | IC50 [2]: 3500 nM; IC50 (Histone deacetylase 3): 180 nM
CC(=O)CCCCC[C@H](NC(=O)C1CCN(C)CC1)c1ncc(-c2ccccc2Cl)[nH]1 |  | 1300 | 180 | 
CC(=O)CCCCC[C@H](NC(=O)c1cncs1)c1ncc(-c2ccccc2)[nH]1 |  | 530 | 140 | 
CC(=O)CCCCC[C@H](NC(=O)C1CCN(C)CC1)c1ncc(-c2ccc(-c3ccccc3)cc2)[nH]1 | 170 | 390 | 50 | 
CC(=O)CCCCC[C@H](NC(=O)C1CCN(C)CC1)c1ncc(C(C)(C)C)[nH]1 |  | > 25000 | > 5000 | 
CC(=O)CCCCC[C@H](NC(=O)C1CCCCN1C)c1ncc(-c2ccccc2)[nH]1 (stereo partly drawn) | > 300 | 2700 | 710 | 
CC(=O)CCCCC[C@H](NS(=O)(=O)c1ccc([N+](=O)[O-])c(F)c1)c1ncc(-c2ccccc2)[nH]1 |  | 1000 | 130 | 
CC(=O)CCCCC[C@H](NC(=O)C1CCN(C)CC1)c1ncc(-c2ccccn2)[nH]1 |  | 9700 | > 500 | 
CC(=O)CCCCC[C@H](NS(=O)(=O)c1ccc(C#N)cc1)c1ncc(-c2ccccc2)[nH]1 |  | 1200 | 180 | 
CC(=O)CCCCC[C@H](NC(=O)C1CCN(C)C1)c1ncc(-c2ccccc2)[nH]1 (stereo partly drawn) | 501 | 1100 | 280 | 
CC(=O)CCCCC[C@H](NC(=O)CCN1CCCCC1)c1ncc(-c2ccccc2)[nH]1 | > 300 | 1300 | 190 | 
CCC(=O)CCCCC[C@H](NC(=O)C1CCN(C)CC1)c1ncc(-c2ccc3ccccc3c2)[nH]1 |  | 210 | 12 | IC50 [2]: 800 nM; IC50 (Histone deacetylase 3): 12 nM
CC(=O)CCCCC[C@H](NC(=O)C1CCN(C)CC1)c1ncc(-c2cccc(Cl)c2)[nH]1 |  | 400 | 90 | 
CC(=O)CCCCC[C@H](NC(=O)CN1CCN(C)CC1)c1ncc(-c2ccccc2)[nH]1 | 64 | 2000 | 500 | 
CC(=O)CCCCC[C@H](NC(=O)C1CCN(C)CC1)c1ncc(-c2cccc(C#N)c2)[nH]1 |  | 1540 | 480 | 
CC(=O)CCCCC[C@H](NS(=O)(=O)c1cccc(C#N)c1)c1ncc(-c2ccccc2)[nH]1 |  | 1100 | 110 | 

Compound | microsomal CLint [1] [µL/min/mg] | IC50 (HeLa) [nM] | IC50 (Histone deacetylase 1) [nM] | also measured
CC(=O)CCCCC[C@H](NC(=O)C1CCN(C)CC1)c1ncc(-c2ccc(Cl)cc2)[nH]1 | 246 | 680 | 75 | 
CC(=O)CCCCC[C@H](NC(=O)c1cccc(C#N)c1)c1ncc(-c2ccccc2)[nH]1 |  | 1100 | 160 | 
CC(=O)CCCCC[C@H](NC(=O)C1CCN(C)CC1)c1ncc(-c2ccsc2)[nH]1 |  | 3200 | 240 | 
COc1ccc2[nH]c(C)c(CC(=O)N[C@@H](CCCCCC(C)=O)c3ncc(-c4ccccc4)[nH]3)c2c1 | > 300 |  |  | IC50 (Histone deacetylase 4): > 1000 nM; Activity (HCT-116): Active; IC50 (Histone deacetylase 7): > 1000 nM; IC50 (Histone deacetylase 5): > 1000 nM; IC50 (Histone deacetylase 8): > 1000 nM
CC(=O)CCCCC[C@H](NC(=O)C1CCN(C)CC1)c1ncc(-c2ccccc2)[nH]1 | 68 | 980 | 250 | 
CCCC(=O)CCCCC[C@H](NC(=O)C1CCN(C)CC1)c1ncc(-c2ccc3ccccc3c2)[nH]1 |  | 200 | 16 | IC50 [2]: 1400 nM; IC50 (Histone deacetylase 3): 27 nM
CC(=O)CCCCC[C@H](NS(=O)(=O)c1ccccc1C#N)c1ncc(-c2ccccc2)[nH]1 |  | 7300 | 270 | 
CC(=O)CCCCC[C@H](NC(=O)c1ccc2c(c1)OCCO2)c1ncc(-c2ccccc2)[nH]1 |  | 1100 | 300 | 
COc1ccc(S(=O)(=O)N[C@@H](CCCCCC(C)=O)c2ncc(-c3ccccc3)[nH]2)cc1 |  | 1400 | 250 | 
CC(=O)CCCCC[C@H](NC(=O)C1CCCN(C)C1)c1ncc(-c2ccccc2)[nH]1 (stereo partly drawn) | 154 | 400 | 220 | 
CC(=O)CCCCC[C@H](NC(=O)C1CCN(C)CC1)c1ncc(-c2ccc(C#N)cc2)[nH]1 | 330 | 1500 | 120 | 
CC(=O)CCCCC[C@H](NC(=O)C1CCN(C)CC1)c1nc(C)c(-c2ccccc2)[nH]1 |  | 14700 | > 1500 | 
CC(=O)CCCCC[C@H](NS(=O)(=O)c1cccc([N+](=O)[O-])c1)c1ncc(-c2ccccc2)[nH]1 |  | 1300 | 55 | 
CC(=O)CCCCC[C@H](NC(=O)C1CCN(C)CC1)c1ncc(-c2ccc(F)cc2)[nH]1 | 99 | 2200 | 380 | 
CC(=O)CCCCC[C@H](NC(=O)C1CCN(C)CC1)c1ncc(-c2csc3ccccc23)[nH]1 |  | 1300 | 180 | 
CC(=O)CCCCC[C@H](NC(=O)CCN1CC2CCC1C2)c1ncc(-c2ccccc2)[nH]1 (stereo partly drawn) | 143 | 1700 | 220 | 
